# Laboratory results: patent US20230133910A1, “NEW METHOD FOR DETECTING AND QUANTIFYING RNA” (EAST CHINA UNIVERSITY OF SCIENCE AND TECHNOLOGY, priority 2020, published 2023)
# Columns and labels:
# Carrot-1 RNA aptamer = test: Properties of Carrot-1 RNA aptamer with different fluorophores (spectra, extinction coefficient, quantum yield, activation fold); assay type: biochemical; details: for Emmax / Exmax / Extinction coefficient / Quantum yield: fluorophore bound to Carrot-1 RNA aptamer; for Activation fold: fluorophore with Carrot-1 RNA aptamer versus fluorophore alone
# Procedure: (§1) (5) Function detection of nucleic acid aptamers Carrot or Carrot mutant nucleic acid aptamer molecules were prepared according to common experimental method (I), 5 μM of nucleic acid aptamer molecules and 1 μM of fluorophore molecules were incubated in detection buffer (40 mM HEPES, pH 7.4, 125 mM KCl, 5 mM MgCl2, 5% DMSO), and Synergy Neo2 multifunctional microplate reader was used for detecting and obtaining the maximum excitation peak and the maximum emission peak of the fluorescence of the nucleic acid aptamer-fluorophore molecule complex. The Synergy Neo2 multifunctional microplate reader was used again for detecting the fluorescence intensity of the aptamer-fluorophore molecule complex under its maximum excitation and emission conditions. Control sample (1 μM of fluorophore molecules without nucleic acid aptamer) was measured under the same condition, and the ratio of fluorescence intensity was calculated. […] By using Synergy Neo2 multifunctional microplate reader, it was detected that the fluorescence intensity of the complex was 5720 when it was excited at 524±10 nm and emitted under the emission condition of 580 nm±10 nm, while fluorescence intensity of the control sample (1 μM of IV-39 fluorophore molecules) under the same detection condition was 20, so the activation multiple of Carrot-1 nuclear acid aptamer to IV-39 fluorophore molecule was 286.
# In order to detect the spectral properties of the Carrot-IV-39 complex, Carrot-1 (SEQ ID NO: 2) RNA was prepared according to the commonly used experimental method (1). 1 μM IV-39 with 5 μM Carrot-1 was incubated.
# Carrot-1 RNA aptamer was prepared according to the commonly used experimental methods (1), and was used to detect the properties of IV-39 analogues upon Carrot binding, including the fluorescence spectrum, extinction coefficient, quantum yield and fluorescence activation fold. From the data shown in the table, Carrot-1 still could activate the fluorescence of IV-39 analogues.
# [1] = Fluorescence activation of IV-39 by base-modified Carrot; assay type: biochemical; details: control buffer
# Procedure: as §1, with “286. […]” for “286.”
Compound,Emmax (Carrot-1 RNA aptamer) [nm],Exmax (Carrot-1 RNA aptamer) [nm],Extinction coefficient (Carrot-1 RNA aptamer) [M⁻¹ cm⁻¹],Quantum yield (Carrot-1 RNA aptamer),Activation fold (Carrot-1 RNA aptamer) [fold],activation of the fluorescence of IV-39 fluorophore [1]
COC(=O)CNCCN(C)c1ccc(/C=C2N=C(/C=C/c3ccc(Br)cc3)N(C)C\2=O)cc1 [Carrot-1-IV-32],591,489,22000,0.11,64,
CN1C(=O)/C(=C/c2ccc(N(C)CCN)cc2)N=C1/C=C/c1cccc(F)c1 [Carrot-1-IV-33],592,519,28000,0.38,287,
CCCN1C(=S)/C(=C/c2ccc(N(C)C)nc2)N=C1/C=C/c1ccccc1F [Carrot-1-IV-24],615,498,21000,0.09,45,
CN1C(=S)/C(=C/c2cc(F)c(O)c(F)c2)N=C1/C=C/c1ccc(F)cc1 [Carrot-1-IV-7],598,514,24000,0.27,201,
CN(C)CCN(C)c1ccc(/C=C2N=C(/C=C/c3cccc(F)c3)N(C)C\2=O)cc1 [Carrot-1-IV-34],581,515,29000,0.38,287,
CN1C(=O)/C(=C/c2cnc(N(C)CCC#N)nc2)N=C1/C=C/c1ccccc1I [Carrot-1-IV-27],576,472,19000,0.09,57,
CN1C(=S)/C(=C/c2cc(F)c(O)c(F)c2)N=C1/C=C/c1ccc(C#N)cc1 [Carrot-1-IV-8],638,534,22500,0.21,68,
CN1C(=O)/C(=C/c2ccc(N(C)CCS(=O)(=O)O)cc2)N=C1/C=C/c1ccc(C#N)cc1 [Carrot-1-IV-29],619,531,27000,0.26,87,
CN1CCc2cc(/C=C3N=C(/C=C/c4ccc(F)nc4)N(CCO)C\3=O)ccc21 [Carrot-1-IV-28],579,476,19000,0.04,19,
CC(C)CN1C(=O)/C(=C/c2cc(F)c(O)c(Br)c2)N=C1/C=C/c1ncc(C#N)cn1 [Carrot-1-IV-11],614,507,21000,0.05,16,
COCCOCCOCCOCCN1C(=O)/C(=C/c2cc(F)c(O)c(I)c2)N=C1/C=C/c1ccc(Cl)cc1 [Carrot-1-IV-12],577,482,19000,0.03,6,
"Carrot-3: base-modified Carrot, SEQ ID NO: 5, GGGAAGATTGTAAACACGCCGAAAGGCGGACACTTCCC containing deoxyribonucleotide bases (GGGAAGAUUGUAAACACGCCGAAAGGCGGACACUUCCC; some positions are deoxyribonucleotides, which ones are not given here in text)",,,,,,significantly activate
C=CCOCCN(C)c1ccc(/C=C2N=C(/C=C/c3ccccc3C#N)N(C)C\2=S)cc1 [Carrot-1-IV-23],648,547,19000,0.12,57,
CN1C(=O)/C(=C/c2ccc(N)cc2)N=C1/C=C/c1ccc(C#N)cc1 [Carrot-1-IV-35],619,527,21000,0.14,97,
CN1C(=O)/C(=C/c2ccc(N(C)CCO)cc2)N=C1/C=C/c1ccc(F)cc1 [Carrot-1-IV-22],580,522,32000,0.46,301,
CCN(CC)c1ccc(/C=C2N=C(/C=C/c3ccc(Cl)cc3)N(CC(=O)OC)C\2=O)nc1 [Carrot-1-IV-25],574,475,18000,0.02,4,
CN1C(=O)/C(=C/c2ccc(N(C)CCO)cc2)N=C1/C=C/c1cccc(F)c1 [Carrot-1-IV-19],590,522,30000,0.43,331,
C#CCOCCN(C)c1ccc(/C=C2N=C(/C=C/c3ccc(F)cc3)N(C)C\2=O)cc1 [Carrot-1-IV-36],578,511,22000,0.28,262,
CNC(=O)CN1C(=O)/C(=C/c2cc(Cl)c(O)c(Cl)c2)N=C1/C=C/c1ccc(Br)cc1 [Carrot-1-IV-13],579,478,20000,0.02,5,
O=C1/C(=C/c2ccc(O)c(Br)c2)N=C(/C=C/c2cccc(Cl)c2)N1CCO [Carrot-1-IV-15],578,480,21000,0.03,7,
CN1C(=O)/C(=C/c2cc(F)c(O)c(F)c2)N=C1/C=C/c1cccc(O)c1 [Carrot-1-IV-4],574,490,23000,0.37,191,
CN1CCc2cc(/C=C3N=C(/C=C/c4ccc(Br)nc4)N(CC(F)(F)F)C\3=O)ccc21 [Carrot-1-IV-30],588,485,19000,0.05,15,
CN1C(=O)/C(=C/c2cc(Br)c(O)c(Br)c2)N=C1/C=C/c1ccc(F)cc1 [Carrot-1-IV-16],587,485,22000,0.08,34,
"Carrot-4: base-modified Carrot, SEQ ID NO: 6, GGGAAGATTGTAAACACGCCGAAAGGCGGACACTTCCC containing 2′-F modification (GGGAAGAUUGUAAACACGCCGAAAGGCGGACACUUCCC; some positions carry 2'-F, which ones are not given here in text)",,,,,,significantly activate
CN1C(=O)/C(=C/c2cc(F)c(O)c(F)c2)N=C1/C=C/c1ccccn1 [Carrot-1-IV-38],581,519,26000,0.31,257,
C#CCN1C(=O)/C(=C/c2ccc(O)c(Cl)c2)N=C1/C=C/c1ccc(I)cc1 [Carrot-1-IV-14],585,482,21000,0.02,6,
CN1C(=O)/C(=C/c2ccc(N(C)CCO)cc2)N=C1/C=C/c1cccc(O)c1 [Carrot-1-IV-17],582,524,32000,0.47,282,
COCCOCCOCCOCC(=O)OCCN(C)c1ccc(/C=C2N=C(/C=C/c3ccc(C#N)cc3)N(C)C\2=O)cc1 [Carrot-1-IV-31],621,508,24000,0.15,75,
